Experimental data reported in article PMC5372685, “Passage through the Ocular Barriers and Beneficial Effects in Retinal Ischemia of Topical Application of PACAP1-38 in Rodents” (International Journal of Molecular Sciences, 2017).
Ends that are not written are not given here.

Experiments:
ischemic retinal lesion = settings: cited from earlier work
Description: (§1) VIP, the peptide with the closest structural similarity ...

[1] = mouse, in vivo
[2] = test system: retinal layers in BCCAO-induced retinal hypoperfusion; test: Retina morphology and morphometry after permanent bilateral common carotid artery occlusion (BCCAO); format: in vivo, Wistar rats
Description: (§2) Wistar rats (n = 20:n = 12 for histological analysis, n = 8 for immunohistochemical analysis) weighing 250–300 g were subjected to permanent ligation of both common carotid arteries. The animals were bred and kept in the Animal Facility of the University of Pecs, Medical School. They were fed and watered ad libitum, under light/dark cycles of 12/12 h. All procedures were in accordance with institutional guidelines (ethical permission No: BA02/2000-31/2011, University of Pecs). Under isoflurane anesthesia, both common carotid arteries were exposed through a midline cervical incision and ligated with a 3-0 filament. Directly after the operation within 1 min, the right eye was treated with PACAP1-38 eye drops (1 µg/drop) (PACAP was synthesized at the Department of Medical Chemistry, University of Szeged, Szeged, Hungary). […] The left eye served as a control, treated only with the vehicle. A group of animals served as the sham-operated group that underwent anesthesia and all steps of the surgical procedure except ligation of the carotid arteries. Rats were treated twice a day with one drop, for 5 consecutive days.
Rats (n = 3 sham, n = 3 sham + PACAP1-38, n = 9 BCCAO, n = 9 BCCAO + PACAP1-38 retinas) were sacrificed with an overdose of anesthetic 2 weeks after BCCAO and eyes were processed for histological analysis. Histological analysis was performed as described previously. Briefly, removed retinas were dissected in phosphate buffered saline (PBS), fixed in 4% paraformaldehyde dissolved in 0.1 M phosphate buffer (PB), embedded in Durcupan ACM resin, and two-µm-thick sections were stained with toluidine blue (Sigma, Budapest, Hungary). Four tissue blocks obtained from at least three rats were prepared and central retinal areas within 1 mm from the optic nerve were used (n = 5 measurements from one tissue block). The following parameters were measured on digital photographs taken with a Nikon Eclipse camera using the Spot program: cross-section from the outer limiting membrane (OLM) to the inner limiting membrane (ILM), and width of all retinal layers (outer nuclear layer-ONL, outer plexiform layer-OPL, inner nuclear layer-INL, inner plexiform layer-IPL). We also counted the number of cells in the ganglion cell layer (GCL). Results are presented as mean ± SEM. Statistical comparisons were made using the two-way ANOVA followed by Fischer’s post hoc analysis.

[3] = test system: Müller glial cells (GFAP); test: GFAP immunohistochemistry of Müller glial cell activation after BCCAO; format: in vivo, Wistar rats; settings: BCCAO rats, eye drops 1 µg/drop twice a day for 5 days, 2 weeks after ischemia, n = 4; p < 0.05
Description: as §2, with “Rats were treated twice a day with one drop, for 5 consecutive days.” left out
For immunohistochemical analysis, 2 weeks after the induction of ischemia, animals (n = 4 sham, n = 4 sham + PACAP1-38 and n = 4 BCCAO; n = 4 BCCAO + PACAP1-38 retinas) were sacrificed with 120 mg/kg pentobarbital (Nembutal, Sanofi-Phylaxia, Budapest, Hungary). […] Digital photographs were taken with a Nikon Eclipse Ci fluorescence microscope. […]

[4] = design: species or system mice; settings: mouse, in vivo
Description: Mice were anesthetized with urethane and administered PACAP1-38 as an eye drop (1 × 10^6 cpm/eye in benzalkonium-chloride). Serum, whole brain, and eyes were collected 10 or 60 min after the eye drops were administered. The whole brain and eyes were washed in ice-cold PBS. Blood was allowed to clot, centrifuged at 5400× g for 10 min, and 50 μL of the serum obtained was added to 200 μL of 1% BSA in Lactated Ringers' (LR) solution. This mixture was added to 250 μL of 30% trichloroacetic acid, vortexed, and centrifuged for 10 min at 5400× g. Brains and eyes were homogenized separately in 0.5 mL of 1% BSA-LR with a bead beater for 30 s at 4800 rpm × 2 on ice. Samples were transferred to a microfuge tube and centrifuged at 10,000× g for 20 min and a portion of the resulting supernatant added to an equal volume of 30% trichloroacetic acid, vortexed, and centrifuged at 5400× g for 10 min. Resulting supernatant (S) and precipitate (P) from the serum, whole brain, and eyes were counted separately and the percent of radioactivity which could be precipitated with acid (% […]) was calculated using: % […] = 100(P)/(S + P). To correct for any degradation that might have occurred during the processing for acid precipitation, we added 125I-PACAP1-38 to non-radioactive arterial whole blood, whole brain, and eyes, and processed as above. Biological samples were corrected for degradation during processing by dividing their values by the processing control values.

LH surge = settings: intracerebroventricular administration; cited from earlier work
Description: (§3) Our present study, together with the previous study on PACAP1-27, highlights the potential therapeutic use of PACAP in the form of eye drops to treat retinal diseases. The novelty of our present results is that PACAP1-38, the most commonly occurring form of the peptide, exerts a retinoprotective effect similarly to PACAP1-27. Although most actions of PACAP1-27 and PACAP1-38 are similar or the same, several differences are also known. In most studies, PACAP1-27 binds to the receptors with less affinity, leading to less well-pronounced effects at the same concentration as PACAP1-38 [6, 36]. T ...

dipeptidyl-peptidase = settings: cited from earlier work
Description: as §3

retinoblastoma cells = settings: high concentrations; cited from earlier work
Description: as §3

[5] = test system: monosodium glutamate-induced excitotoxic lesions of the retina; settings: intravitreal injection; cited from earlier work
Description: as §1

[6] = test system: ocular barriers and retinal lesion; settings: eye drops dissolved in benzalkonium-chloride; cited from earlier work
Description: The present results are in accordance with our recent observations with PACAP1-27 eye drops.

For glucagon, the “protective effects in ischemic retinal lesion” value (ischemic retinal lesion) is given as “do not exert protective effects”.
In the case of “pituitary adenylate cyclase activating polypeptide [PACAP]”, the “serum and brain levels in comparison to ocular levels” value [1] is reported as “negligible in comparison to ocular levels”.
With “pituitary adenylate cyclase activating polypeptide [PACAP1-38]” the “OLM–ILM (outer limiting membrane–inner limiting membrane) distance, reduction compared to sham controls” value ([2]; BCCAO rats, eye drops 1 µg/drop in 0.005% benzalkonium-chloride, twice a day for 5 days, 2 weeks after ligation, BCCAO vehicle eye 49.7%, p < 0.001, n = 9 retinas) was 40.6%, the “outer nuclear layer (ONL) thickness, reduction” value ([2]; as E1, BCCAO vehicle eye 36.5%, no statistically significant attenuation) was 37.7% and the “inner nuclear layer (INL) thickness, reduction” value ([2]; as E1, BCCAO vehicle eye 38.5%, p < 0.001) was 30.5%. For the same substance, the “number of cells in the ganglion cell layer (GCL), decrease” value ([2]; as E1, BCCAO vehicle eye 52.4%, p < 0.05) was 25.9%, the “outer plexiform layer (OPL) thickness, reduction” value ([2]; as E1, BCCAO vehicle eye 53.0%, no statistically significant attenuation) was 48.2% and the “inner plexiform layer (IPL) thickness, reduction” value ([2]; as E1, BCCAO vehicle eye 64.8%, p < 0.05) was 38.2%. The “effect on retinal layers in sham animals” value ([2]; sham-operated rats, eye drops 1 µg/drop in benzalkonium, n = 3) was “did not result in changes in any of the retinal layers”, the “GFAP upregulation in Müller glial cells” value [3] was “attenuated the GFAP upregulation” and the “Percentage of acid precipitation, Whole Brain, 10 min” value [4] was 104.71 ± 17.72%. For the same substance, the “Percentage of acid precipitation, Whole Brain, 60 min” value [4] was 75.09 ± 41.13%, the “intact peptide in the eye” value [4] was “about 50%” and the “clearance into the blood stream (serum)” value [1] was “increased clearance into the blood stream after 120 min”. For the same substance, the “detection of radioactivity after ocular application” value [1] was “present in the eye, the brain, and the serum five minutes after application”, the “level in the whole brain, time course” value [1] was “detected after 5 min in the whole brain (Figure 4D) and levels remained stable throughout the observation time” and the “transport across the cornea, time course” value [1] was “increasing transport across the cornea over the time course of the study”. The “uptake in the retina, time course” value [1] was “increased to 30 min and plateaued”, the “effect on LH surge” value (LH surge) was “inhibition of the LH surge” and the “metabolic stability in the serum against dipeptidyl-peptidase” value (dipeptidyl-peptidase) was “rapidly degraded in the serum by dipeptidyl-peptidase”. The “viability of retinoblastoma cells” value (retinoblastoma cells) was “reduced viability” and the “retinoprotection in monosodium glutamate-induced excitotoxic lesions” value (“retinoprotection” below) [5] was “same degree of retinoprotection”.
In the case of “125I-PACAP1-38: PACAP1-38 labeled with 125I using the lactoperoxidase method”, the “Percentage of acid precipitation, Eye, 10 min” value [4] is reported as 52.73 ± 2.35%, the “Percentage of acid precipitation, Eye, 60 min” value [4] is reported as 48.24 ± 3.39% and the “Percentage of acid precipitation, Serum, 10 min” value [4] is reported as 25.57 ± 25.57%. The “Percentage of acid precipitation, Serum, 60 min” value [4] was 0 ± 0%, the “Percentage of acid precipitation, Whole Brain, 10 min” value [4] was 104.71 ± 17.72% and the “Percentage of acid precipitation, Whole Brain, 60 min” value [4] was 75.09 ± 41.13%. For the same substance, the “degradation in the serum after ocular administration” value [4] was “almost completely degraded by 5 min”.
In the case of “PACAP6-27: PACAP receptor antagonist (FTDSYSRYRKQMAVKKYLAAVL; ends and bridges not checked; UniProt P18509 137-158, looked up, fragment)”, the “retinoprotection” value [5] is listed as “further increased the excitotoxic damage”.
In the case of “VIP: the peptide with the closest structural similarity to PACAP”, the “concentration needed for the same degree of protection as PACAP in ischemic retinopathy” value (ischemic retinal lesion) is listed as “ten times higher”.
In the case of “PACAP1-27: the shorter biologically active form of PACAP [reference compound]”, the “effect on LH surge” value (LH surge) is given as “opposite reaction”, the “metabolic stability in the serum against dipeptidyl-peptidase” value (dipeptidyl-peptidase) is given as “more stable due to the resistance against dipeptidyl-peptidase reaction” and the “viability of retinoblastoma cells” value (retinoblastoma cells) is given as “negligible effects”. The “retinoprotection” value [5] was “same degree of retinoprotection” and the “passage through ocular barriers and effect on retinal lesion” value [6] was “passes through the mouse ocular barriers from the corneal surface to the retina, and ameliorates the retinal lesion”.
In the case of “PACAP6-38: PACAP receptor antagonist (FTDSYSRYRKQMAVKKYLAAVLGKRYKQRVKNK; ends and bridges not checked; UniProt P18509 137-169, looked up, fragment)”, the “retinoprotection” value [5] is listed as “further increased the excitotoxic damage”.
In the case of secretin, the “protective effects in ischemic retinal lesion” value (ischemic retinal lesion) is listed as “do not exert protective effects”.
